Measurements taken from PubChem BioAssay AID1919007 (Molecular Pharmacology Branch, DTP, NCI, 2023).

Tested on: A498 complex spheroids with HUVEC/MSC, growth
Test: Anticancer human tumor A498 cell line growth inhibition [AhR];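 further: seven day exposure starting three days after spheroid seeding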;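 on viability, T/C: luminescence signal used as a surrogate for viable cells; luminescence viability scaled so 100% equals DMSO vehicle wells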
Conditions: for IC50: curve of first compound; for viability, T/C: stronger effect = lower value
In short: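 Complex tumor spheroids co-cultured with HUVEC and human MSC stroma; AhR antagonists tested in combination with standard-of-care and investigational agents. Top concentration at or near clinical Cmax (else 10 microM), half-log dilutions; growth expressed as percent test/control.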

[1] = second compound 0.1 µM, first compound 0.0316 µM
[2] = second compound 0.1 µM, first compound 0.1 µM
[3] = second compound 0.316 µM, first compound 0.0316 µM
[4] = second compound 0.316 µM, first compound 0.1 µM
[5] = second compound 1 µM, first compound 0.0316 µM
[6] = second compound 1 µM, first compound 0.1 µM
[7] = second compound 3.16 µM, first compound 0.0316 µM
[8] = second compound 3.16 µM, first compound 0.1 µM
[9] = second compound 10 µM, first compound 0.0316 µM
[10] = second compound 10 µM, first compound 0.1 µM
[11] = second compound 0.1 µM, first compound 0.316 µM
[12] = second compound 0.1 µM, first compound 1 µM
[13] = second compound 0.1 µM, first compound 3.16 µM
[14] = second compound 0.1 µM, first compound 10 µM
[15] = second compound 0.316 µM, first compound 0.316 µM
[16] = second compound 0.316 µM, first compound 1 µM
[17] = second compound 0.316 µM, first compound 3.16 µM
[18] = second compound 0.316 µM, first compound 10 µM
[19] = second compound 1 µM, first compound 0.316 µM
[20] = second compound 1 µM, first compound 1 µM
[21] = second compound 1 µM, first compound 3.16 µM
[22] = second compound 1 µM, first compound 10 µM
[23] = second compound 3.16 µM, first compound 0.316 µM
[24] = second compound 3.16 µM, first compound 1 µM
[25] = second compound 3.16 µM, first compound 3.16 µM
[26] = second compound 3.16 µM, first compound 10 µM
[27] = second compound 10 µM, first compound 0.316 µM
[28] = second compound 10 µM, first compound 1 µM
[29] = second compound 10 µM, first compound 3.16 µM
[30] = second compound 10 µM, first compound 10 µM

CC[C@@]1(O)C(=O)OCc2c1cc1n(c2=O)Cc2cc3c(CN(C)C)c(O)ccc3nc2-1 + Cc1ccccc1N=Nc1ccc(NC(=O)c2ccnn2C)c(C)c1
IC50 (second compound 0.1 µM): > 0.1 µM
IC50 (second compound 0.316 µM): > 0.1 µM
IC50 (second compound 1 µM): > 0.1 µM
IC50 (second compound 3.16 µM): > 0.1 µM
IC50 (second compound 10 µM): > 0.1 µM
viability, T/C (second compound 0.1 µM, first compound 0.000316 µM): 88.9%
viability, T/C (second compound 0.1 µM, first compound 0.001 µM): 93.4%
viability, T/C (second compound 0.1 µM, first compound 0.00316 µM): 87.9%
viability, T/C (second compound 0.1 µM, first compound 0.01 µM): 80.7%
viability, T/C [1]: 75.7%
viability, T/C [2]: 74.7%
viability, T/C (second compound 0.316 µM, first compound 0.000316 µM): 90.7%
viability, T/C (second compound 0.316 µM, first compound 0.001 µM): 99.7%
viability, T/C (second compound 0.316 µM, first compound 0.00316 µM): 92.8%
viability, T/C (second compound 0.316 µM, first compound 0.01 µM): 81%
viability, T/C [3]: 74.3%
viability, T/C [4]: 74.2%
viability, T/C (second compound 1 µM, first compound 0.000316 µM): 87.5%
viability, T/C (second compound 1 µM, first compound 0.001 µM): 92.7%
viability, T/C (second compound 1 µM, first compound 0.00316 µM): 86.9%
viability, T/C (second compound 1 µM, first compound 0.01 µM): 68%
viability, T/C [5]: 71.5%
viability, T/C [6]: 66.5%
viability, T/C (second compound 3.16 µM, first compound 0.000316 µM): 87.3%
viability, T/C (second compound 3.16 µM, first compound 0.001 µM): 90.4%
viability, T/C (second compound 3.16 µM, first compound 0.00316 µM): 87.7%
viability, T/C (second compound 3.16 µM, first compound 0.01 µM): 74.7%
viability, T/C [7]: 69.8%
viability, T/C [8]: 64.2%
viability, T/C (second compound 10 µM, first compound 0.000316 µM): 84%
viability, T/C (second compound 10 µM, first compound 0.001 µM): 84.7%
viability, T/C (second compound 10 µM, first compound 0.00316 µM): 89.1%
viability, T/C (second compound 10 µM, first compound 0.01 µM): 76.5%
viability, T/C [9]: 78%
viability, T/C [10]: 63.4%

COc1cc(C2c3cc4c(cc3C(OC3OC5COC(C)OC5C(O)C3O)C3COC(=O)C23)OCO4)cc(OC)c1O (stereo not given) + Cc1ccccc1N=Nc1ccc(NC(=O)c2ccnn2C)c(C)c1
IC50 (second compound 0.1 µM): > 10 µM
IC50 (second compound 0.316 µM): > 10 µM
IC50 (second compound 1 µM): > 10 µM
IC50 (second compound 3.16 µM): 7.6 µM
IC50 (second compound 10 µM): 8.76 µM
viability, T/C [1]: 73.9%
viability, T/C [2]: 68%
viability, T/C [11]: 63.5%
viability, T/C [12]: 64.6%
viability, T/C [13]: 61.3%
viability, T/C [14]: 49.2%
viability, T/C [3]: 85%
viability, T/C [4]: 76.9%
viability, T/C [15]: 77.4%
viability, T/C [16]: 66.7%
viability, T/C [17]: 59.5%
viability, T/C [18]: 53.2%
viability, T/C [5]: 75.3%
viability, T/C [6]: 71.1%
viability, T/C [19]: 67.5%
viability, T/C [20]: 63.4%
viability, T/C [21]: 52.9%
viability, T/C [22]: 52.7%
viability, T/C [7]: 72.9%
viability, T/C [8]: 68.7%
viability, T/C [23]: 72.6%
viability, T/C [24]: 62.8%
viability, T/C [25]: 55.4%
viability, T/C [26]: 48.6%
viability, T/C [9]: 74.8%
viability, T/C [10]: 73.1%
viability, T/C [27]: 77.2%
viability, T/C [28]: 66.7%
viability, T/C [29]: 61.5%
viability, T/C [30]: 48.5%

Nc1ccn(C2OC(CO)C(O)C2(F)F)c(=O)n1 (stereo not given) + Cc1ccccc1N=Nc1ccc(NC(=O)c2ccnn2C)c(C)c1
IC50 (second compound 0.1 µM): < 0.0316 µM
IC50 (second compound 0.316 µM): < 0.0316 µM
IC50 (second compound 1 µM): < 0.0316 µM
IC50 (second compound 3.16 µM): < 0.0316 µM
IC50 (second compound 10 µM): < 0.0316 µM
viability, T/C [1]: 33.3%
viability, T/C [2]: 36%
viability, T/C [11]: 39.9%
viability, T/C [12]: 47.9%
viability, T/C [13]: 46.9%
viability, T/C [14]: 43.5%
viability, T/C [3]: 30.9%
viability, T/C [4]: 33.1%
viability, T/C [15]: 43.9%
viability, T/C [16]: 44.8%
viability, T/C [17]: 50.5%
viability, T/C [18]: 38%
viability, T/C [5]: 35.5%
viability, T/C [6]: 33.2%
viability, T/C [19]: 44%
viability, T/C [20]: 50.7%
viability, T/C [21]: 42.7%
viability, T/C [22]: 38.2%
viability, T/C [7]: 37%
viability, T/C [8]: 37.5%
viability, T/C [23]: 46.5%
viability, T/C [24]: 41.8%
viability, T/C [25]: 44.6%
viability, T/C [26]: 38.8%
viability, T/C [9]: 37.4%
viability, T/C [10]: 40.8%
viability, T/C [27]: 46.6%
viability, T/C [28]: 45.7%
viability, T/C [29]: 44.7%
viability, T/C [30]: 40.9%
